This note sets out measurements from patent US8685730B2, “Methods and devices for differentiating pluripotent stem cells into cells of the pancreatic lineage” (Wisconsin Alumni Research Foundation, priority 2006, dated 2014).

Bounds are passed on as bounds.

Holding throughout (format): cell-based, human
For experiment [1], the system named is hESCs. Kind of experiment: Trophoblast differentiation (hCG and CDX2 expression). The settings on record: for cdx2 expression at Stage 1: compared to undifferentiated hESCs. As for the experimental part: FIG. 3 illustrates how treatment of hESCs with BMP4 and/or bFGF influences cell fate. Cultures of adherent, undifferentiated hESCs grown in MEF-conditioned media were treated for 1, 4, or 7 days and then assayed for human chorionic gonadotropin (hCG) protein expression (a) or hCG transcript accumulation by QPCR (b). For QPCR results, the fold change values and statistical analyses were calculated by comparing treated cells with cells grown to the same time point but without added growth factors (ctrl). B10, 10 ng/ml BMP4; B50, 50 ng/ml BMP4; B100, 100 ng/ml BMP4; B10F, 10 ng/ml BMP4+100 ng/ml bFGF; B50F, 50 ng/ml BMP4+100 ng/ml bFGF; B100F, 100 ng/ml BMP4+100 ng/ml bFGF. *, p<0.05; **, p<0.01.
FIG. 4 illustrates the expression of cdx2 transcript at Stage 1. Fold change values compared to undifferentiated hESCs are shown. […] CM, conditioned media; F, bFGF; A, Activin A; B, BMP4; inhib, SB431542 Activin signaling inhibitor; D/F, DMEM/F12; I, insulin. See Materials and Methods for growth factor concentrations.
(§1) Total cellular RNA was extracted with Trizol (Invitrogen). cDNA was synthesized from 1 μg total RNA using a SuperScript First-Strand Synthesis kit (Invitrogen). Quantitative real time RT-PCR (QPCR) was performed using Assays-on-demand agents (Applied Biosystems) on an ABI PRISM 7700 Sequence Detection System (Applied Biosystems) for the following transcripts: foxa2, sox17, brachyury, ngn3, pdx1, insulin, glucagon, glut2 and an endogenous control, β-actin (see Table No. 2 for assay numbers). QPCR was performed according to the equipment manufacturer's instructions. Relative quantification was carried out using the comparative cycle threshold (CT) method recommended by the supplier. Fold change was calculated as: 2^−ΔΔCT. Mean ΔΔCT values from QPCR analyses were compared using the unpaired, two-tailed Student's t-test. P values <0.05 were considered significant.

For experiment [2], the system named is hESCs. Kind of experiment: Quantitative RT-PCR (QPCR) of transcript accumulation in hESCs differentiated through Stages 1-4. As for the experimental part:
Culture of undifferentiated hESCs or human iPS (hiPS) cells. Cell lines used were NIH-approved H1 (WA01) and H9 (WA09) between passage 18 and 42, though hiPS cell lines derived from iPS (IMR-90)-4-MCB-1, iPS (Foreskin)-1-MCB-1, and DF 19-9-7T-MCB-01 may be used, as well as mouse ES cells.
Chemically defined medium comprised 80% DMEM/F12 and 20% Knockout serum replacement supplemented with 1 mM L-glutamine, 1% nonessential amino acids, 0.1 mM 2-mercaptoethanol and 4 ng/ml bFGF (all from Invitrogen). hESCs were cultured in 6-well plates on a feeder layer of irradiated MEFs, and the medium was refreshed daily. When the cells were nearly confluent, the ES cell colonies were split and passaged by detaching them from the feeder layer with 2 mg/ml dispase (Invitrogen). The colonies were then rinsed off the plates and filtered through a 70 μm cell strainer to remove MEFs. The colonies remained in the strainer. The retained cells were rinsed, pipetted into small pieces, and plated on growth factor-depleted Matrigel™ (BD Biosciences) at a density of 70% to 80% confluence in MEF-conditioned media.
Stage 1. On the day after splitting, differentiation was initiated by replacing the medium with medium containing 100 ng/ml bFGF, 100 ng/ml Activin A and 50 ng/ml BMP4 (FAB) in DMEM/F12 supplemented with 2% BSA, 1 mML-glutamine, 1% nonessential amino acids and 0.1 mM 2-mercaptoethanol for 3 to 4 days. The medium was refreshed daily.
(§2) Stage 2. FAB-treated cells were detached from the plate with 2 mg/ml dispase and grown in suspension as cell aggregates in MEF-conditioned medium (CM) for 2 days. On the third day, the medium was switched to DMEM/F12 with ITS supplement (BD, 5 μg/ml insulin+5 μg/ml transferrin+5 ng/ml selenous acid) and 50 ng/ml bFGF for 12 days in suspension culture dishes. The medium was refreshed every 2 days.
Stage 3. Cell aggregates were transferred to a 15 ml centrifuge tube and allowed to settle by gravity. The medium was aspirated, and the pellet-containing tube placed on ice. Two milligrams of Matrigel™ were diluted with 3 ml of cold DMEM/F12 added to the pellet at a density of 50 to 100 cell aggregates/ml. One half milliliter of this diluted Matrigel™/cell aggregate mixture was added onto a coverslip previously loaded into wells of a 24-well plate and incubated overnight at 37° C. in 5% CO2.
Nongelled Matrigel™ was aspirated from the wells and ITSFINE medium, a serum-free medium comprised of DMEM/F12 with ITS, 10 ng/ml FGF7 (R&D), 200 nM INGAP (PSN-4765, sequence: IGLHDPSHGTLPNGS), 10 mM nicotinamide (Sigma), 10 nM exendin-4 (Sigma), 4 μg/ml insulin (Gibco) and 2 g/L BSA (Sigma) was added for 21 to 28 days. The medium was refreshed every other day. As an alternative to DMEM/F12 only, DMEM/F12 may be used for the first 14 days of culture followed by 14 days of RPMI1640 as the base medium.
Stage 4. The sphere-structured cell masses were washed and the medium was replaced with RPMI1640 supplemented with 1×B27 (Invitrogen) and 10 mM nicotinamide for 1 to 2 weeks. Alternatively, the sphere-structured cell masses may be dislodged with 2 mg/ml dispase (two hundred microliters of per well of a 24-well plate), rinsed off the plate, and placed in suspension culture dishes in DMEM/F12 supplemented with 1×B27 and 10 mM nicotinamide for 1 to 2 weeks.
as §1, with “Fold change was calculated as: 2^−ΔΔCT. Mean ΔΔCT values from QPCR analyses were compared using the unpaired, two-tailed Student's t-test. P values <0.05 were considered significant.” left out

The test system of a further experiment is hESC. The experiment in a line: Q-PCR CTs of pancreas-associated transcripts in BMP4-treated, differentiated hESC. The method, then:
as §1

For experiment [3], the system named is hESCs. Kind of experiment: Embryoid body formation and pancreatic differentiation in suspension culture. As for the experimental part:
as §2

As for “BMP4: bone morphogenetic protein 4, member of the TGFβ superfamily”, the “cdx2 expression at Stage 1” value in the experiment with hESCs [1] is on record as “increase in cdx2 expression”. In addition, the “trophoblast differentiation (hCG and CDX2 expression)” value in the experiment on hESCs [1] (higher concentrations, alone, 7 days) is “high proportion of trophoblast differentiation”. Further, the “endoderm- (sox17, foxa2, pdx1) and pancreas-associated (pdx1, insulin) transcripts in EBs” value in the experiment on hESCs [2] (hESCs grown on MEFs, 50 ng/ml) was “increased”. In the experiment with hESC (EB14), the “Q-PCR CT of Foxa2” value is 24.0, the “Q-PCR CT of Glucagon” value came to 28.7, the “Q-PCR CT of Glut2” value came to 23.0 and the “Q-PCR CT of Insulin” value is listed as 34.6. Besides, in the experiment on hESC (EB14), the “Q-PCR CT of Pdx1” value stood at 26.7, the “Q-PCR CT of T” value turned out to be 25.4 and the “Q-PCR CT of β-actin” value is 15.0. Also, in the experiment on hESC (EB14 + 14), the “Q-PCR CT of Foxa2” value turned out to be 23.1, the “Q-PCR CT of Glucagon” value was determined as 22.0, the “Q-PCR CT of Glut2” value stood at 22.0 and the “Q-PCR CT of Insulin” value worked out at 28.4. Further, in the experiment with hESC (EB14 + 14), the “Q-PCR CT of Pdx1” value amounted to 23.9, the “Q-PCR CT of T” value turned out to be 27.9 and the “Q-PCR CT of β-actin” value is 14.7. In the experiment on hESC (EB14 + 21), the “Q-PCR CT of Foxa2” value amounted to 23.0, the “Q-PCR CT of Glucagon” value came to 21.0, the “Q-PCR CT of Glut2” value worked out at 21.1 and the “Q-PCR CT of Insulin” value is 27.8. Also, in the experiment with hESC (EB14 + 21), the “Q-PCR CT of Pdx1” value worked out at 24.3, the “Q-PCR CT of T” value was 28.4 and the “Q-PCR CT of β-actin” value was 14.9. For the same molecule, in the experiment with hESC (EB14 + 28), the “Q-PCR CT of Foxa2” value worked out at 22.7, the “Q-PCR CT of Glucagon” value was found to be 20.2, the “Q-PCR CT of Glut2” value came to 20.4 and the “Q-PCR CT of Insulin” value is given as 26.0. Besides, in the experiment with hESC (EB14 + 28), the “Q-PCR CT of Pdx1” value was determined as 23.0, the “Q-PCR CT of T” value came out at 28.5 and the “Q-PCR CT of β-actin” value is 15.4. Also, in the experiment with hESC (hESC + BMP4), the “Q-PCR CT of Foxa2” value came out at 25.6, the “Q-PCR CT of Glucagon” value was over 50, the “Q-PCR CT of Glut2” value is 32.8 and the “Q-PCR CT of Insulin” value was over 50. Besides, in the experiment with hESC (hESC + BMP4), the “Q-PCR CT of Pdx1” value is on record as 36.4, the “Q-PCR CT of T” value is recorded as 25.6 and the “Q-PCR CT of β-actin” value is listed as 15.0.
With “insulin: a PI3K agonist, component of serum replacement”, in the experiment on hESCs [2] (combined with Activin A), the “induction of Brachyury” value is listed as “significantly increased” and the “induction of SOX17” value was “significantly decreased”.
Consider `NC(=O)c1ccc(-c2nc(-c3ccc4c(c3)OCO4)c(-c3ccccn3)[nH]2)cc1` [SB431542, reference compound], for which the “expression of gsc, Mixl1, Brachyury and FOXA2” value in the experiment with hESCs [2] (added to cells treated with bFGF+BMP4 in CM) was “completely inhibited expression”.

B1: noggin: a known BMP antagonist (protein, UniProt Q13253 28-232, looked up)
Noggin: QHYLHIRPAPSDNLPLVDLIEHPDPIFDPKEKDLNETLLRSLLGGHYDPGFMATSPPEDRPGGGGGAAGGAEDLAELDQLLRQRPSGAMPSEIKGLEFSEGLAQGKKQRLSKKLRRKLQMWLWSQTFCPVLYAWNDLGSRFWPRYVKVGSCFSKRSCSVPEGMVCKPSKSVHLTVLRWRCQRRGGQRCGWIPIQYPIISECKCSC
As to B1, the “effect of BMP4 on endoderm- and pancreas-associated transcripts” value with hESCs [2] (300 ng/ml, simultaneous incubation with 50 ng/ml BMP4) is “eliminated”. Also, the “expression of SOX17, FOXA2, Brachyury and PDX1” value with hESCs [2] (added during Stage 1, read at the end of Stage 2) is listed as “significantly reduced levels of expression”.

B2: Activin A: member of the TGF-β superfamily (protein, UniProt P08476 311-426, looked up)
Inhibin beta A chain: GLECDGKVNICCKKQFFVSFKDIGWNDWIIAPSGYHANYCEGECPSHIAGTSGSSLSFHSTVINHYRMRGHSPFANLKSCCVPTKLRPMSMLYYDDGQNIIKKDIQNMIVEECGCS
modifications: Inhibin beta A chain
notes: member of the TGF-β superfamily
On to B2, for which the “cdx2 expression at Stage 1” value in the experiment with hESCs [1] is “essentially eliminates expression of cdx2”. In addition, the “induction of MIXL1, GSC, T, SOX17 and FOXA2” value in the experiment on hESCs [2] (CDM, compared to undifferentiated cells in CM) is listed as “significant induction”. For the same molecule, the “induction of pancreatic cell differentiation” value with hESCs [3] (5, 50 or 100 ng/ml in serum-free medium, treatment alone) was “cannot induce pancreatic cell differentiation”. In the experiment on hESCs [3] (Stage 1 treatment in CDM), the “EB formation from treated hESCs” value is “failed to develop”.
